Earlier results as cited in US20240285564A1, “USE OF (S)-3-AMINO-4-(DIFLUOROMETHYLENYL)CYCLOPENT-1-ENE-1-CARBOXYLIC ACID FOR GASTROINTESTINAL TRACT DISORDERS AND AS AN IMMUNOMODULATORY AGENT” (Ovid Therapeutics Inc., priority 2023, published 2024).
pIC50, pKi: −log10 of the molar value.

Columns and labels:
[1] = molecular target: aspartate aminotransferase (Asp-AT)
[2] = molecular target: alanine aminotransferase (Ala-AT)
OAT = molecular target: T1, OAT (Homo sapiens, UniProt P04181)
T1 sequence (P04181 36-439 limits assumed): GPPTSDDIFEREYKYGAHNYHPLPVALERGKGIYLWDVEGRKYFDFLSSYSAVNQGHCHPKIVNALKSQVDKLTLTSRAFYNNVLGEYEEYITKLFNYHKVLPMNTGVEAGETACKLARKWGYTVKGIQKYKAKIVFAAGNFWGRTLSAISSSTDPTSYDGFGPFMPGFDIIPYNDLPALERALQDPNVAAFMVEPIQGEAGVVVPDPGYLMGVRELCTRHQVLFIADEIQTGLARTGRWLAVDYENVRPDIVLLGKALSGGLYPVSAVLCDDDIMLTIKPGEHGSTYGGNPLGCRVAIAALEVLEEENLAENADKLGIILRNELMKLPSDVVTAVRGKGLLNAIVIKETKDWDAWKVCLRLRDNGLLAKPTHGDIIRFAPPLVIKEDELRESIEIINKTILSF

[3] = read-out: IC50 (reversible inhibition)

## N[C@H]1C=C(C(=O)O)CC1=C(F)F [(S)-3-amino-4-(difluoromethylenyl)cyclopent-1-ene-1-carboxylic acid]
[1]; [3]
  pIC50: < 2.40
[2]; [3]
  pIC50: < 2.40
OAT
  kintact: 0.025 min⁻¹
  kintact/KI: 127 M⁻¹ s⁻¹
OAT; relative to CPP-115
  times more efficient an inactivator of OAT than CPP-115: 9.0 times

## N[C@H]1C[C@@H](C(=O)O)CC1=C(F)F [CPP-115, (1S,3S)-3-amino+difluoromethylenyl-1-cyclopentanoic acid, reference compound]
[1]
  inactivation or inhibition of off-target enzyme: not to inactivate or inhibit
[2]
  inactivation or inhibition of off-target enzyme: not to inactivate or inhibit
OAT
  pKi: 3.94
  kintact: 0.097 min⁻¹
